# Measured values as given in US20170107179A1 (Tetraphase Pharmaceuticals, Inc., priority 2010, published 2017).
# Like-named read-outs stand apart in the source and are kept apart here.
# What was measured:
# H. influenzae HI551 = assay: Rat lung infection model; assay type: in vivo; conditions: H. influenzae intratracheal
# [1] = tested on: Legionella pneumophila, 70 isolates, serogroups 1-6; assay: microbe, parasite or virus in culture; assay type: cell-based
# [2] = tested on: E. coli DH10B EC1153 Tet(X); assay: MIC, E. coli DH10B recombinantly expressing tetracycline-resistance gene; conditions: arabinose-induced, ampicillin in medium
# [3] = tested on: Viridans group streptococci; assay: Broth microdilution MIC by tetracycline resistance phenotype (Table 10); assay type: cell-based; set-up: unit not given beside the values
# [4] = Non-GLP monkey pharmacokinetics; assay type: in vivo; conditions: cynomolgus monkeys; for half-life: read-out: T½ (converted)
# Description: As a result of promising pharmacokinetic data in Sprague Dawley rats,^a Compound 102 was evaluated in 3 non-naîve cynomolgus monkeys. […] Nine to ten plasma samples were drawn for each dosing route up to 24 hours into heparin-coated vacutainer tubes. Dose formulations were verified with a 5-point calibration curve. The plasma concentration of the compound was quantified by LC/MS/MS using an internal standard. Quality control (QC) samples (low, medium, high; minimum of 6 standards with LLOQ<3 ng/mL) and standard curves (in duplicate) were included in the bioanalytical run. WinNonLin was used to determine individual and mean PK parameters±standard deviation (F, Cmax, Tmax, T½, CL, Vss, AUC(0-t), AUC(0-∞), and MRT).
# E. coli DH10B EC971 LacZ = assay: MIC, E. coli DH10B recombinantly expressing control gene; conditions: E. coli DH10B, arabinose-induced, ampicillin in medium
# [5] = tested on: subset of Gram-negative and Gram-positive isolates; assay: Minimum bactericidal concentration (MBC), CLSI M26-A, selected strains (Table 11)
# [6] = tested on: E. coli DH10B EC1083 TetB; assay: MIC, E. coli DH10B recombinantly expressing tetracycline-resistance gene; conditions: arabinose-induced, ampicillin in medium
# S. aureus Smith = assay: Mouse systemic infection (septicemia) model, CD-1 mice; conditions: Staphylococcus aureus, in Mus musculus, 48 h
# E. coli DH10B EC969 TetM = assay: MIC, E. coli DH10B recombinantly expressing tetracycline-resistance gene; conditions: arabinose-induced, ampicillin in medium
# [7] = tested on: evaluated pathogens by tetracycline phenotype; assay: Broth microdilution MIC by tetracycline phenotype (Table 14)
# [8] = cynomolgus monkey, plasma, IV 1 mg/kg, average of 3
# [9] = cynomolgus monkey, plasma, PO 10 mg/kg, average of 3
# [10] = Enterococcus faecium, E. faecium, TET NS, N=40
# [11] = Enterococcus faecium, E. faecium, TET S, N=60
# [12] = Streptococcus agalactiae, S. agalactiae, TET NS, N=39
# [13] = Streptococcus agalactiae, S. agalactiae, TET S, N=11
# [14] = Streptococcus pneumoniae, S. pneumoniae, TET NS, N=46
# [15] = Streptococcus pneumoniae, S. pneumoniae, TET S, N=54
# [16] = Streptococcus pyogenes, S. pyogenes, TET S, N=44
smiles,measurement,setting,value
CN(C)[C@@H]1C(O)=C(C(N)=O)C(=O)[C@@]2(O)C(O)=C3C(=O)c4c(O)c5c(c(F)c4C[C@H]3C[C@@H]12)CN(C(C)(C)C)C5 [Compound 102],"log10 reduction in CFU versus the 72 hour untreated control, IV","H. influenzae HI551; 25 mg/kg IV at 5, 24 and 48 hours",3.40±0.31 log10
same,"log10 reduction in CFU versus the 72 hour untreated control, oral","H. influenzae HI551; 100 mg/kg orally at 5, 24, 48 hours (FIG. 4)",2.93±0.27 log10
same,MIC50,[1],2 µg/mL
same,MIC90,[1],8 µg/mL
same,MIC EC1153 Tet(X),[2],4
same,MIC50,"[3]; TET NS, n=32",0.12
same,MIC90,"[3]; TET NS, n=32",0.25
same,MIC50,"[3]; TET S, n=65",0.06
same,MIC90,"[3]; TET S, n=65",0.12
same,AUC(0-inf),[4]; [8],9310 ng·h/mL
same,AUC(0-t),[4]; [8],4850 ng·h/mL
same,clearance,[4]; [8],1.86 mL/min/kg
same,half-life,[4]; [8],23.3 h
same,Vd,"[4]; cynomolgus monkey, plasma, IV 1 mg/kg, average of 3, read-out: Vdss",3.4 L/kg
same,bioavailability,"[4]; cynomolgus monkey, plasma, PO 10 mg/kg vs IV 1 mg/kg",33.7%
same,AUC(0-inf),[4]; [9],35400 ng·h/mL
same,AUC(0-t),[4]; [9],16300 ng·h/mL
same,Cmax,[4]; [9],1260 ng/mL
same,Tmax,[4]; [9],4 h
same,half-life,[4]; [9],24.8 h
same,Co,"[4]; IV 1 mg/kg, average of 3",3170 ng/mL
same,MIC EC971 LacZ,E. coli DH10B EC971 LacZ,2
same,evaluated isolates with MBC:MIC ratio >2,[5],89.3%
same,mode of action from MBC:MIC ratios,[5],bacteriostatic mode of action
same,MBC:MIC,[5]; Acinetobacter lwoffii isolate 2919857,4
same,MBC:MIC,[5]; Acinetobacter lwoffii isolate 2919860,128
same,MBC:MIC,[5]; Acinetobacter lwoffii isolate 2919873,1
same,MBC:MIC,[5]; Acinetobacter lwoffii isolate 2919875,4
same,MBC:MIC,[5]; Enierobacter cloacae isolate 2920082,4
same,MBC:MIC,[5]; Enterobacter aerogenes isolate 2919897,2
same,MBC:MIC,[5]; Enterobacter aerogenes isolate 2919900,8
same,MBC:MIC,[5]; Enterobacter aerogenes isolate 2919909,4
same,MBC:MIC,[5]; Enterobacter aerogenes isolate 2919913,16
same,MBC:MIC,[5]; Enterobacter cloacae isolate 2920072,2
same,MBC:MIC,[5]; Enterobacter cloacae isolate 2920119,1
same,MBC:MIC,[5]; Escherichia coli isolate 2921525,>16
same,MBC:MIC,[5]; Escherichia coli isolate 2921576,8
same,MBC:MIC,[5]; Klebsiella oxytoca isolate 2919956,8
same,MBC:MIC,[5]; Klebsiella oxytoca isolate 2919964,4
same,MBC:MIC,[5]; Klebsiella oxytoca isolate 2919972,2
same,MBC:MIC,[5]; Klebsiella oxytoca isolate 2919983,8
same,MBC:MIC,[5]; Klebsiella pneumonia isolate 2921528,>8
same,MBC:MIC,[5]; Klebsiella pneumoniae isolate 2921529,>8
same,MBC:MIC,[5]; Morganella morganii isolate 2919931,>4
same,MBC:MIC,[5]; Morganella morganii isolate 2919935,>4
same,MBC:MIC,[5]; Morganella morganii isolate 2919945,>2
same,MBC:MIC,[5]; Proteus vulgaris isolate 2919822,>1
same,MBC:MIC,[5]; Proteus vulgaris isolate 2919827,>2
same,MBC:MIC,[5]; Proteus vulgaris isolate 2919835,>4
same,MBC:MIC,[5]; Proteus vulgaris isolate 2919836,4
same,MBC:MIC,[5]; Salmonella species isolate 2919986,4
same,MBC:MIC,[5]; Salmonella species isolate 2919990,4
same,MBC:MIC,[5]; Salmonella species isolate 2920006,4
same,MBC:MIC,[5]; Salmonella species isolate 2920008,4
same,MBC:MIC,[5]; Serratia marcescens isolate 2920092,4
same,MBC:MIC,[5]; Serratia marcescens isolate 2920094,>4
same,MBC:MIC,[5]; Serratia marcescens isolate 2920100,2
same,MBC:MIC,[5]; Serratia marcescens isolate 2920109,4
same,MBC:MIC,[5]; Shigella species isolate 2919892,4
same,MBC:MIC,[5]; Shigella species isolate 2919894,16
same,MBC:MIC,[5]; Shigella species isolate 2920018,2
same,MBC:MIC,[5]; Shigella species isolate 2920026,32
same,MBC:MIC,[5]; Shigella species isolate 2920028,8
same,MBC:MIC,[5]; Staphylococcus aureus isolate 2919648,>16
same,MBC:MIC,[5]; Staphylococcus aureus isolate 2919649,>16
same,MBC:MIC,[5]; Staphylococcus aureus isolate 2919650,>16
same,MBC:MIC,[5]; Stenotrophomonas maltophilia isolate 2920035,>8
same,MBC:MIC,[5]; Stenotrophomonas maltophilia isolate 2920051,8
same,MBC:MIC,[5]; Streptococcus anginosus isolate 2919722,8
same,MBC:MIC,[5]; Streptococcus anginosus isolate 2919742,16
same,MBC:MIC,[5]; Streptococcus anginosus isolate 2919797,8
same,MBC:MIC,[5]; Streptococcus intermedius isolate 2919756,16
same,MBC:MIC,[5]; Streptococcus intermedius isolate 2919759,64
same,MBC:MIC,[5]; Streptococcus intermedius isolate 2919784,16
same,MBC:MIC,[5]; Streptococcus intermedius isolate 2919819,4
same,MBC:MIC,[5]; Streptococcus mitis isolate 2919763,4
same,MBC:MIC,[5]; Streptococcus mitis isolate 2919781,1
same,MBC:MIC,[5]; Streptococcus mitis isolate 2919798,1
same,MBC:MIC,[5]; Streptococcus mitis isolate 2919803,8
same,MBC:MIC,[5]; Streptococcus sanguis isolate 2919749,4
same,MBC:MIC,[5]; Streptococcus sanguis isolate 2919752,2
same,MBC:MIC,[5]; Streptococcus sanguis isolate 2919758,16
same,MIC EC1083 TetB,[6],1
same,responders at 3 mg/kg,"S. aureus Smith; iv, read-out: Percent survival at 48 hours, IV (3 mg/kg)",100%
same,responders at 30 mg/kg,"S. aureus Smith; po, read-out: Percent survival at 48 hours, PO (30 mg/kg)",83%
same,MIC EC969 TetM,E. coli DH10B EC969 TetM,1
same,"MICs, fold higher against tetracycline resistant isolates relative to tetracycline susceptible isolates",[7],2-4 fold
same,MIC50,[7]; [10],0.25 µg/mL
same,MIC90,[7]; [10],0.5 µg/mL
same,MIC50,[7]; [11],0.12 µg/mL
same,MIC90,[7]; [11],0.12 µg/mL
same,MIC50,"[7]; F. faecalis, TET NS, N=71",0.5 µg/mL
same,MIC90,"[7]; F. faecalis, TET NS, N=71",1 µg/mL
same,MIC50,"[7]; F. faecalis, TET S, N=30",0.12 µg/mL
same,MIC90,"[7]; F. faecalis, TET S, N=30",0.25 µg/mL
same,MIC50,[7]; [12],0.5 µg/mL
same,MIC90,[7]; [12],0.5 µg/mL
same,MIC50,[7]; [13],0.12 µg/mL
same,MIC90,[7]; [13],0.12 µg/mL
same,MIC50,[7]; [14],0.12 µg/mL
same,MIC90,[7]; [14],0.12 µg/mL
same,MIC50,[7]; [15],0.06 µg/mL
same,MIC90,[7]; [15],0.12 µg/mL
same,MIC50,"[7]; Streptococcus pyogenes, S. pyogenes, TET NS, N=6",0.25 µg/mL
same,MIC50,[7]; [16],0.12 µg/mL
same,MIC90,[7]; [16],0.12 µg/mL
